Paper PMC6264767 (Molecules, 2011)
pEC50: −log10 of the molar value. Where two headings read alike, the source gives them in different places.

Legend:
HSV-1 TK^− KOS ACV^r = test: microbe, parasite or virus in culture; type: cell-based, herpes simplex virus-1; settings: Human alphaherpesvirus 1, HEL
HSV-2 (G) = test: microbe, parasite or virus in culture; type: cell-based, herpes simplex virus type 2; settings: Human alphaherpesvirus 2, HEL
HEL cell cultures = settings: for MCC (minimum cytotoxic concentration): human
Vaccinia virus = test: microbe, parasite or virus in culture; type: cell-based; settings: Orthopoxvirus vaccinia, HEL
HSV-1 (KOS) = test: microbe, parasite or virus in culture; type: cell-based, herpes simplex virus type 1; settings: Human alphaherpesvirus 1, HEL
[1] = system: Vesicular stomatitis virus; test: microbe, parasite or virus in culture; type: cell-based; settings: HEL, read-out: EC50 Vesicular stomatitis virus
[2] = system: Feline Corona Virus (FIPV); test: microbe, parasite or virus in culture; type: cell-based; settings: Alphacoronavirus 1, CRFK, read-out: EC50 Feline Corona Virus (FIPV)
in vitro = settings: cat
Feline Herpes Virus = test: organism not typed; type: cell-based; settings: CRFK, read-out: EC50 Feline Herpes Virus
[3] = read-out: EC50 HSV-1 TK^− KOS ACV^r
[4] = read-out: inhibitory activity against HSV-1 TK^− KOS (ACV^r), one range given for several viruses
[5] = read-out: inhibitory activity against HSV-2 (G), one range given for several viruses
[6] = read-out: inhibitory activity against HSV-1 (KOS), one range given for several viruses

## O=c1oc2ccccc2c(O)c1C(c1ccc(Br)cc1)c1c(O)c2ccccc2oc1=O
other
  melting point: 267.2 °C

## Nc1nc2c(ncn2COCCO)c(=O)[nH]1 [Acyclovir, reference compound]
HSV-1 TK^− KOS ACV^r; [3]
  pEC50: 4.70
HSV-2 (G); read-out: EC50 HSV-2 (G)
  pEC50: 6.46
HEL cell cultures
  MCC (minimum cytotoxic concentration): >250 µM
Vaccinia virus; read-out: EC50 Vaccinia virus
  pEC50: < 3.60
HSV-1 (KOS); read-out: EC50 HSV-1 (KOS)
  pEC50: 6.52
[1]
  pEC50: < 3.60

## O=c1[nH]c(=O)n([C@H]2C[C@H](O)[C@@H](CO)O2)cc1/C=C/Br [Brivudin, (E)-5-(2-bromovinyl)-2’-deoxyuridine, reference compound]
HSV-1 TK^− KOS ACV^r; [3]
  pEC50: 4.30
HSV-2 (G); read-out: EC50 HSV-2 (G)
  pEC50: 3.74
HEL cell cultures
  MCC (minimum cytotoxic concentration): >250 µM
Vaccinia virus; read-out: EC50 Vaccinia virus
  pEC50: 5.49
HSV-1 (KOS); read-out: EC50 HSV-1 (KOS)
  pEC50: 7.22
[1]
  pEC50: < 3.60

## Nc1ccn(C[C@@H](CO)OCP(=O)(O)O)c(=O)n1 [Cidofovir, (S)-1-[3-hydroxy-2-(phosphonyl-methoxy)propyl]cytosine, reference compound]
HSV-1 TK^− KOS ACV^r; [3]
  pEC50: 5.82
HSV-2 (G); read-out: EC50 HSV-2 (G)
  pEC50: 5.82
HEL cell cultures
  MCC (minimum cytotoxic concentration): >250 µM
Vaccinia virus; read-out: EC50 Vaccinia virus
  pEC50: 5.10
HSV-1 (KOS); read-out: EC50 HSV-1 (KOS)
  pEC50: 6.05
[1]
  pEC50: < 3.60

## O=c1oc2ccccc2c(O)c1C(c1ccccc1)c1c(O)c2ccccc2oc1=O [Compound 1, 3,3′-(Benzilidene)-bis-[4-hydroxycoumarin]]
[2]
  pEC50: 5.12
In vitro
  CC50: 43 µM
Feline Herpes Virus
  pEC50: 5.04

## O=c1oc2ccccc2c(O)c1C(c1cccc(Br)c1)c1c(O)c2ccccc2oc1=O [Compound 3, 3,3′-(3-Bromobenzylidene)-bis-[4-hydroxycoumarin]]
other
  melting point: 287 °C
HSV-1 TK^− KOS ACV^r; [3]
  pEC50: 5.05
HSV-1 TK^− KOS ACV^r; [4]
  pEC50: 4.92 to 5.05
HSV-2 (G); read-out: EC50 HSV-2 (G)
  pEC50: 5.05
HSV-2 (G); [5]
  pEC50: 4.92 to 5.05
Vaccinia virus; read-out: EC50 Vaccinia virus
  pEC50: 4.96
Vaccinia virus; read-out: inhibitory activity against vaccinia virus, one range given for several viruses
  pEC50: 4.92 to 5.05
HSV-1 (KOS); read-out: EC50 HSV-1 (KOS)
  pEC50: 5.05
HSV-1 (KOS); [6]
  pEC50: 4.92 to 5.05
[1]
  pEC50: < 4.70

## O=c1oc2ccccc2c(O)c1C(c1ccc(Cl)cc1)c1c(O)c2ccccc2oc1=O [Compound 4, 3,3’-(4-Chlorobenzylidene)-bis-[4-hydroxycoumarin]]
[2]
  pEC50: 5.04
In vitro
  CC50: 45 µM
Feline Herpes Virus
  pEC50: 5.12

## COc1ccccc1C(c1c(O)c2ccccc2oc1=O)c1c(O)c2ccccc2oc1=O [Compound 5, 3,3′-(2-Methoxybenzylidene)bis[4-hydroxycoumarin]]
[2]
  pEC50: 5.12
In vitro
  CC50: 36 µM
Feline Herpes Virus
  pEC50: 5.30

## O=c1oc2ccccc2c(O)c1C(c1ccc(F)cc1)c1c(O)c2ccccc2oc1=O [Compound 6, 3,3′-(4-Fluorobenzylidene)-bis-[4-hydroxycoumarin]]
other
  melting point: 214.5 °C
[2]
  pEC50: 5.11
In vitro
  CC50: 39 µM
Feline Herpes Virus
  pEC50: 5.09

## O=c1oc2ccccc2c(O)c1C(c1ccc(C(F)(F)F)cc1)c1c(O)c2ccccc2oc1=O [Compound 7, 3,3′-(4-Trifluoromethylbenzylidene)-bis-[4-hydroxycoumarin]]
other
  melting point: 271.3 °C
HSV-1 TK^− KOS ACV^r; [3]
  pEC50: < 5.40
HSV-2 (G); read-out: EC50 HSV-2 (G)
  pEC50: < 5.40
HEL cell cultures
  MCC (minimum cytotoxic concentration): 20 µM
Vaccinia virus; read-out: EC50 Vaccinia virus
  pEC50: < 5.40
HSV-1 (KOS); read-out: EC50 HSV-1 (KOS)
  pEC50: < 5.40
[1]
  pEC50: < 5.40

## O=c1oc2ccccc2c(O)c1C(c1ccc([N+](=O)[O-])cc1)c1c(O)c2ccccc2oc1=O [Compound 8, 3,3′-(4-Nitrobenzylidene)-bis-[4-hydroxycoumarin]]
[2]
  pEC50: 5.07
HSV-1 TK^− KOS ACV^r; [3]
  pEC50: < 4.70
HSV-2 (G); read-out: EC50 HSV-2 (G)
  pEC50: < 4.70
HEL cell cultures
  MCC (minimum cytotoxic concentration): 100 µM
In vitro
  CC50: 41 µM
Vaccinia virus; read-out: EC50 Vaccinia virus
  pEC50: < 4.70
HSV-1 (KOS); read-out: EC50 HSV-1 (KOS)
  pEC50: < 4.70
[1]
  pEC50: < 4.70
Feline Herpes Virus
  pEC50: 5.16

## O=c1oc2ccccc2c(O)c1C(c1ccccc1[N+](=O)[O-])c1c(O)c2ccccc2oc1=O [Compound 9, 3,3’-(2-Nitrobenzylidene)-bis-[4-hydroxycoumarin]]
other
  melting point: 202 °C
[2]
  pEC50: 5.08
In vitro
  CC50: 34 µM
Feline Herpes Virus
  pEC50: 4.85

## CSc1ccc(C(c2c(O)c3ccccc3oc2=O)c2c(O)c3ccccc3oc2=O)cc1 [Compound 11, 3,3′-(4-Methyltiobenzylidene)-bis-[4-hydroxycoumarin]]
other
  melting point: 258.7 °C
HSV-1 TK^− KOS ACV^r; [3]
  pEC50: < 4.70
HSV-2 (G); read-out: EC50 HSV-2 (G)
  pEC50: < 4.70
HEL cell cultures
  MCC (minimum cytotoxic concentration): 100 µM
Vaccinia virus; read-out: EC50 Vaccinia virus
  pEC50: < 4.70
HSV-1 (KOS); read-out: EC50 HSV-1 (KOS)
  pEC50: < 4.70
[1]
  pEC50: < 4.70

## O=c1oc2ccccc2c(O)c1C(c1ccc(O)c(O)c1)c1c(O)c2ccccc2oc1=O [Compound 13, 3,3′-(3,4-Dihydroxybenzylidene)-bis-[4-hydroxycoumarin]]
other
  melting point: 227.5 °C
HSV-1 TK^− KOS ACV^r; [3]
  pEC50: < 4.70
HSV-2 (G); read-out: EC50 HSV-2 (G)
  pEC50: < 4.70
HEL cell cultures
  MCC (minimum cytotoxic concentration): 100 µM
Vaccinia virus; read-out: EC50 Vaccinia virus
  pEC50: < 4.70
HSV-1 (KOS); read-out: EC50 HSV-1 (KOS)
  pEC50: < 4.70
[1]
  pEC50: < 4.70

## COc1ccc(OC)c(C(c2c(O)c3ccccc3oc2=O)c2c(O)c3ccccc3oc2=O)c1 [Compound 14, 3,3′-(2,5-Dimethoxybenzylidene)-bis-[4-hydroxycoumarin]]
other
  melting point: 181.6 °C
HSV-1 TK^− KOS ACV^r; [3]
  pEC50: < 4.00
HSV-2 (G); read-out: EC50 HSV-2 (G)
  pEC50: < 4.00
HEL cell cultures
  MCC (minimum cytotoxic concentration): >100 µM
Vaccinia virus; read-out: EC50 Vaccinia virus
  pEC50: < 4.00
HSV-1 (KOS); read-out: EC50 HSV-1 (KOS)
  pEC50: < 4.00
[1]
  pEC50: < 4.00

## COc1cc(C(c2c(O)c3ccccc3oc2=O)c2c(O)c3ccccc3oc2=O)cc([N+](=O)[O-])c1O [Compound 15, 3,3′-(4-Hydroxy-3-methoxy-5-nitrobenzylidene)-bis-[4-hydroxycoumarin]]
other
  melting point: 199.6 °C
HSV-1 TK^− KOS ACV^r; [3]
  pEC50: < 4.00
HSV-2 (G); read-out: EC50 HSV-2 (G)
  pEC50: < 4.00
HEL cell cultures
  MCC (minimum cytotoxic concentration): >100 µM
Vaccinia virus; read-out: EC50 Vaccinia virus
  pEC50: < 4.00
HSV-1 (KOS); read-out: EC50 HSV-1 (KOS)
  pEC50: < 4.00
[1]
  pEC50: < 4.00

## O=c1oc2ccccc2c(O)c1C1c2cc([N+](=O)[O-])ccc2Oc2c1c(=O)oc1ccccc21 (stereo not drawn) [Compound 19, 3-[6-Oxo-(1H)-18-nitrobenzopyrano[4,3-b]benzopyran-7-yl]-4-hydroxycoumarin]
other
  melting point: 315.7 °C
HSV-1 TK^− KOS ACV^r; [3]
  pEC50: 4.30
HSV-1 TK^− KOS ACV^r; [4]
  pEC50: 4.30 to 4.35
HSV-2 (G); read-out: EC50 HSV-2 (G)
  pEC50: 4.35
HSV-2 (G); [5]
  pEC50: 4.30 to 4.35
HEL cell cultures; 100 µM
  cytostatic activity at 100 µM: no cytotostatic activity
HEL cell cultures
  MCC (minimum cytotoxic concentration): >100 µM
Vaccinia virus; read-out: EC50 Vaccinia virus
  pEC50: < 4.00
HSV-1 (KOS); read-out: EC50 HSV-1 (KOS)
  pEC50: 4.30
HSV-1 (KOS); [6]
  pEC50: 4.30 to 4.35
[1]
  pEC50: < 4.00

## COc1cc(OC)c2c(c1)Oc1c(c(=O)oc3ccccc13)C2c1c(O)c2ccccc2oc1=O (stereo not drawn) [Compound 20, 3-[6-oxo-(1H)-15,17-dimethoxybenzopyrano[4,3-b]benzopyran-7-yl]-4-hydroxycoumarin]
other
  melting point: 287.9 °C
[2]
  pEC50: 5.19
HSV-1 TK^− KOS ACV^r; [3]
  pEC50: < 4.70
HSV-2 (G); read-out: EC50 HSV-2 (G)
  pEC50: < 4.70
HEL cell cultures
  MCC (minimum cytotoxic concentration): 100 µM
In vitro
  CC50: 27 µM
Vaccinia virus; read-out: EC50 Vaccinia virus
  pEC50: < 4.70
HSV-1 (KOS); read-out: EC50 HSV-1 (KOS)
  pEC50: < 4.70
[1]
  pEC50: < 4.70
Feline Herpes Virus
  pEC50: 5.15

## Nc1nc(O)c2ncn(COC(CO)CO)c2n1 [Ganciclovir, 9-[(1,3-dihydroxy-2-propoxy)methyl]guanine, reference compound]
[2]
  pEC50: < 4.00
HSV-1 TK^− KOS ACV^r; [3]
  pEC50: 7.00
HSV-2 (G); read-out: EC50 HSV-2 (G)
  pEC50: 7.52
HEL cell cultures
  MCC (minimum cytotoxic concentration): >100 µM
In vitro
  CC50: > 100 µM
Vaccinia virus; read-out: EC50 Vaccinia virus
  pEC50: < 4.00
HSV-1 (KOS); read-out: EC50 HSV-1 (KOS)
  pEC50: 7.60
[1]
  pEC50: < 4.00
Feline Herpes Virus
  pEC50: 5.31
